For orientation: viability means a read-out of living cells in per cent, often relative to untreated cells.

Each structure is given as a SMILES string. Where a name gives a salt, the structure may show the parent alone.

A short description of the data set: in vitro. Particulars: human, hek293t cells.
Method: Mammalian cytotoxicity measurement was performed using Cell Titer-Glo 2.0 Cell Viability Assay (Promega, G9243) according to the manufacturer protocol. In brief, mammalian cells were seeded into 384-well white plates (Greiner, 781080) and incubated at 37°C for one day. Compounds from the Cys-Library were dispensed into the assay plate using epMotion 96. The plates were then incubated at 37°C for two days. An equal volume of Cell Titer-Glo 2.0 reagent was added into each well of the assay plate using epMotion 96 and incubated at 22°C for 10 min, followed by luminescence measurement using a Cytation 5 plate reader (BioTek).
Turning to `N#CCCN(C(=O)CCl)c1ccccc1F` [5-P07, 2-chloro-N-(2-cyanoethyl)-N-(2-fluorophenyl)acetamide], the viability at 48 h, 25 µM was determined as 1.04%.

In the case of `CC(C1CC1)N(CC(F)(F)F)C(=O)CCl` (stereo not shown) [5-P08, 2-chloro-N-(1-cyclopropylethyl)-N-(2,2,2-trifluoroethyl)acetamide], the viability at 48 h, 25 µM turned out to be 90.7%.

With `O=C(CCl)NC1CCN(c2ccncc2)CC1` [5-P09, 2-chloro-N-[1-(pyridin-4-yl)piperidin-4-yl]acetamide hydrochloride], the viability at 48 h, 25 µM is 48.1%.

In the case of `Cc1cccc(NC(=O)C(C)Cl)c1` (stereo not shown) [5-P10, 2-chloro-N-(3-methylphenyl)propanamide], the viability at 48 h, 25 µM is 96.2%.

As to `CC(NC(=O)CCl)c1cc(C(F)(F)F)[nH]n1` (stereo not shown) [5-P11, 2-chloro-N-{1-[5-(trifluoromethyl)-1H-pyrazol-3-yl]ethyl}acetamide], the viability at 48 h, 25 µM was found to be 0.786%.

On to `CC(C)c1ccc(Cn2[nH]ccc2=NC(=O)CCl)cc1` [5-P12, 2-chloro-N-(2-{[4-(propan-2-yl)phenyl]methyl}-2,3-dihydro-1H-pyrazol-3-ylidene)acetamide], for which the viability at 48 h, 25 µM was -0.215%.

Regarding `CC(=O)NCc1ccc(C2CCCN2C(=O)CCl)o1` (stereo not shown) [5-P13, N-({5-[1-(2-chloroacetyl)pyrrolidin-2-yl]furan-2-yl}methyl)acetamide], the viability at 48 h, 25 µM is 0.652%.

`CC(Cl)C(=O)Nc1cccc(C(F)(F)F)c1` (stereo not shown) [5-P14, 2-chloro-N-[3-(trifluoromethyl)phenyl]propanamide]: the viability at 48 h, 25 µM is 90.7%.

Take `CC(Cl)C(=O)NCc1ncnn1C(C)C` (stereo not shown) [5-P15, 2-chloro-N-{[1-(propan-2-yl)-1H-1,2,4-triazol-5-yl]methyl}propanamide]: the viability at 48 h, 25 µM amounted to 125%.

For `CC(=O)c1ccc(S(=O)(=O)N2CCN(C(=O)CCl)CC2)cc1` [5-P16, 1-[4-(4-acetylbenzenesulfonyl)piperazin-1-yl]-2-chloroethan-1-one], the viability at 48 h, 25 µM was 1.74%.

Take `CC(Cl)C(=O)N(Cc1ccc(Cl)cc1)Cc1cnn(C)c1` (stereo not shown) [5-P17, 2-chloro-N-[(4-chlorophenyl)methyl]-N-[(1-methyl-1H-pyrazol-4-yl)methyl]propanamide]: the viability at 48 h, 25 µM is 116%.

`Cc1cc(C)cc(N(CCC#N)C(=O)CCl)c1` [5-P18, 2-chloro-N-(2-cyanoethyl)-N-(3,5-dimethylphenyl)acetamide]: the viability at 48 h, 25 µM is 0.915%.

Turning to `O=C(CN1CCN(C(=O)CCl)CC1)Nc1cccc(F)c1` [5-P19, 2-[4-(2-chloroacetyl)piperazin-1-yl]-N-(3-fluorophenyl)acetamide hydrochloride], the viability at 48 h, 25 µM is 1.84%.

Turning to `Cc1cccc(C)c1NC(=O)CCl` [5-P20, 2-chloro-N-(2,6-dimethylphenyl)acetamide], the viability at 48 h, 25 µM came out at 112%.

For the molecule `CC(Cl)C(=O)N1Cc2ccoc2CC(C)(C)C1` (stereo not shown) [5-P21, 2-chloro-1-{7,7-dimethyl-4H,5H,6H,7H,8H-furo[3,2-c]azepin-5-yl}propan-1-one], the viability at 48 h, 25 µM was 132%.

As to `COc1ccc(C)cc1NC(=O)C(C)Cl` (stereo not shown) [5-P22, 2-chloro-N-(2-methoxy-5-methylphenyl)propanamide], the viability at 48 h, 25 µM turned out to be 108%.

`O=C(CCl)Nc1cccc(NC(=O)c2ccccc2)c1` [6-A03, N-[3-(2-chloroacetamido)phenyl]benzamide]: the viability at 48 h, 25 µM was -0.0459%.

On to `COc1c(C)cnc(CN2CCC(N(C)C(=O)C(C)Cl)CC2)c1C` (stereo not shown) [6-A04, 2-chloro-N-{1-[(4-methoxy-3,5-dimethylpyridin-2-yl)methyl]piperidin-4-yl}-N-methylpropanamide], for which the viability at 48 h, 25 µM came out at 124%.

Consider `O=C(CCl)Nc1cc(-n2cnnn2)ccc1Cl` [6-A05, 2-chloro-N-[2-chloro-5-(1H-1,2,3,4-tetrazol-1-yl)phenyl]acetamide], for which the viability at 48 h, 25 µM came out at 0.726%.

In the case of `Cc1csc(Cl)c1NC(=O)CCl` [6-A06, 2-chloro-N-(2-chloro-4-methylthiophen-3-yl)acetamide], the viability at 48 h, 25 µM worked out at 0.632%.

In the case of `CC(Cl)C(=O)NC(C)c1ccc2c(c1)CCCC2` (stereo not shown) [6-A07, 2-chloro-N-[1-(5,6,7,8-tetrahydronaphthalen-2-yl)ethyl]propanamide], the viability at 48 h, 25 µM came out at 93.1%.

`O=C(CCl)NCCOc1ccc(F)cc1` [6-A08, 2-chloro-N-[2-(4-fluorophenoxy)ethyl]acetamide]: the viability at 48 h, 25 µM turned out to be 1.34%.

Regarding `CC(Cl)C(=O)Nc1cc(F)ccc1F` (stereo not shown) [6-A09, 2-chloro-N-(2,5-difluorophenyl)propanamide], the viability at 48 h, 25 µM turned out to be 96%.

Consider `Cc1cc(C)c(-c2cc(NC(=O)CCl)n(-c3ccccc3)n2)cc1C` [6-A10, 2-chloro-N-[1-phenyl-3-(2,4,5-trimethylphenyl)-1H-pyrazol-5-yl]acetamide], for which the viability at 48 h, 25 µM turned out to be 0.264%.

In the case of `CC(Cl)C(=O)Nc1ccccc1C#N` (stereo not shown) [6-A11, 2-chloro-N-(2-cyanophenyl)propanamide], the viability at 48 h, 25 µM came to 97.2%.

As to `Cc1ccc(C(=O)c2c(NC(=O)CCl)sc3c2CCCC3)cc1` [6-A12, 2-chloro-N-[3-(4-methylbenzoyl)-4,5,6,7-tetrahydro-1-benzothiophen-2-yl]acetamide], the viability at 48 h, 25 µM amounted to 14%.

In the case of `O=C(CCl)Nc1ccc2c(c1)oc1ccccc12` [6-A13, 2-chloro-N-{8-oxatricyclo[7.4.0.0,2,7]trideca-1(9),2(7),3,5,10,12-hexaen-5-yl}acetamide], the viability at 48 h, 25 µM is -0.0548%.

Turning to `O=C(CCl)NCCOc1ccc2ccccc2c1` [6-A14, 2-chloro-N-[2-(naphthalen-2-yloxy)ethyl]acetamide], the viability at 48 h, 25 µM stood at 0.0621%.

With `CC(Cl)C(=O)Nc1cc(Cl)ccc1Cl` (stereo not shown) [6-A15, 2-chloro-N-(2,5-dichlorophenyl)propanamide], the viability at 48 h, 25 µM was 86.9%.

As for `COc1ccc(Cl)cc1CNC(=O)CCl` [6-A16, 2-chloro-N-[(5-chloro-2-methoxyphenyl)methyl]acetamide], the viability at 48 h, 25 µM stood at 0.564%.

For the molecule `N#CCCN(C(=O)CCl)c1cccc(Cl)c1` [6-A17, 2-chloro-N-(3-chlorophenyl)-N-(2-cyanoethyl)acetamide], the viability at 48 h, 25 µM is -0.154%.

`CC(NC(=O)CCl)c1ccc2ncsc2c1` (stereo not shown) [6-A18, N-[1-(1,3-benzothiazol-6-yl)ethyl]-2-chloroacetamide]: the viability at 48 h, 25 µM was 2.3%.

For the molecule `CN(CC1CCCCC1)C(=O)C(C)(C)NC(=O)CCl` [6-A19, 2-(2-chloroacetamido)-N-(cyclohexylmethyl)-N,2-dimethylpropanamide], the viability at 48 h, 25 µM was 61.9%.

As for `CCC(C)n1nccc1NC(=O)C(C)Cl` (stereo not shown) [6-A20, N-[1-(butan-2-yl)-1H-pyrazol-5-yl]-2-chloropropanamide], the viability at 48 h, 25 µM was 84.8%.

Consider `CC(Cl)C(=O)Nc1sc2c(c1C(N)=O)CCC2` (stereo not shown) [6-A21, 2-(2-chloropropanamido)-4H,5H,6H-cyclopenta[b]thiophene-3-carboxamide], for which the viability at 48 h, 25 µM is 119%.

In the case of `O=C(CCl)NCc1ccccc1[N+](=O)[O-]` [6-A22, 2-chloro-N-[(2-nitrophenyl)methyl]acetamide], the viability at 48 h, 25 µM is 0.388%.

In the case of `O=C(CCl)Nc1ncc[nH]1` [6-B03, 2-chloro-N-(1H-imidazol-2-yl)acetamide hydrochloride], the viability at 48 h, 25 µM is 37.4%.

Consider `O=C(CCl)NCc1coc(Cl)n1` [6-B04, 2-chloro-N-[(2-chloro-1,3-oxazol-4-yl)methyl]acetamide], for which the viability at 48 h, 25 µM was 106%.

In the case of `CC(Cl)C(=O)NC1COCc2ccccc21` (stereo not shown) [6-B05, 2-chloro-N-(3,4-dihydro-1H-2-benzopyran-4-yl)propanamide], the viability at 48 h, 25 µM stood at 106%.

As for `CC(Cl)C(=O)Nc1ccc(S(N)(=O)=O)cc1` (stereo not shown) [6-B06, 2-chloro-N-(4-sulfamoylphenyl)propanamide], the viability at 48 h, 25 µM is 101%.

In the case of `CC(Cl)C(=O)NCc1cc2sccc2s1` (stereo not shown) [6-B07, 2-chloro-N-({thieno[3,2-b]thiophen-2-yl}methyl)propanamide], the viability at 48 h, 25 µM worked out at 109%.

Consider `COc1ccc(NC(=O)C(C)Cl)c([N+](=O)[O-])c1` (stereo not shown) [6-B08, 2-chloro-N-(4-methoxy-2-nitrophenyl)propanamide], for which the viability at 48 h, 25 µM turned out to be 90.1%.

On to `Cn1ccc(-c2nc(CNC(=O)CCl)cs2)n1` [6-B09, 2-chloro-N-{[2-(1-methyl-1H-pyrazol-3-yl)-1,3-thiazol-4-yl]methyl}acetamide hydrochloride], for which the viability at 48 h, 25 µM worked out at 1.33%.

Consider `CC(C)NS(=O)(=O)c1ccc(NC(=O)C(C)Cl)cc1` (stereo not shown) [6-B10, 2-chloro-N-{4-[(propan-2-yl)sulfamoyl]phenyl}propanamide], for which the viability at 48 h, 25 µM came out at 98.5%.

With `CC(Cl)C(=O)N1CCN(C(=O)CN2C(=O)CCC2=O)CC1` (stereo not shown) [6-B11, 1-{2-[4-(2-chloropropanoyl)piperazin-1-yl]-2-oxoethyl}pyrrolidine-2,5-dione], the viability at 48 h, 25 µM was determined as 106%.

Regarding `CC(Cl)C(=O)N1CCN(S(=O)(=O)c2ccccc2)CC1` (stereo not shown) [6-B12, 1-[4-(benzenesulfonyl)piperazin-1-yl]-2-chloropropan-1-one], the viability at 48 h, 25 µM amounted to 100%.

In the case of `COCC(NC(=O)C(C)Cl)c1ccccn1` (stereo not shown) [6-B13, 2-chloro-N-[2-methoxy-1-(pyridin-2-yl)ethyl]propanamide], the viability at 48 h, 25 µM is 106%.

Consider `CC(Cl)C(=O)NC1(c2noc(C(F)F)n2)CCC1` (stereo not shown) [6-B15, 2-chloro-N-{1-[5-(difluoromethyl)-1,2,4-oxadiazol-3-yl]cyclobutyl}propanamide], for which the viability at 48 h, 25 µM was 91.8%.

For the molecule `CC(Cl)C(=O)NC(C)c1ccn(C)n1` (stereo not shown) [6-B16, 2-chloro-N-[1-(1-methyl-1H-pyrazol-3-yl)ethyl]propanamide], the viability at 48 h, 25 µM is 103%.

Consider `COc1cccc([C@H]2C[C@H](N(C)C(=O)C(C)Cl)C2)c1` (stereo partly shown) [6-B17, 2-chloro-N-methyl-N-[(1r,3r)-3-(3-methoxyphenyl)cyclobutyl]propanamide], for which the viability at 48 h, 25 µM amounted to 79.7%.

For the molecule `CC(Cl)C(=O)N(C)C1CCN(C(=O)c2ccccc2)CC1` (stereo not shown) [6-B18, N-(1-benzoylpiperidin-4-yl)-2-chloro-N-methylpropanamide], the viability at 48 h, 25 µM turned out to be 95.9%.

`CC(Cl)C(=O)N1CCCc2c1ccc1c2ncn1C` (stereo not shown) [6-B19, 2-chloro-1-{3-methyl-3H,6H,7H,8H,9H-imidazo[4,5-f]quinolin-6-yl}propan-1-one]: the viability at 48 h, 25 µM came out at 90.9%.

The values above are taken from publication PMC11995724, “Antibiotic target discovery by integrated phenotypic and activity-based profiling of electrophilic fragments” (Cell chemical biology, 2025).
